According to BindingDB's records for PubMed 37722288 (Southwest Jiaotong University):

Assays:
[1] = molecular target: Cyclin-dependent kinase 9/cyclin T1 (Homo sapiens); experiment: Inhibition of CDK9/cyclin T1 (unknown origin)
[2] = molecular target: Glycogen synthase kinase-3 beta (Homo sapiens) (UniProt P49841); experiment: Inhibition of human recombinant GSK3beta
[3] = molecular target: Glycogen synthase kinase-3 alpha (Homo sapiens, UniProt P49840); experiment: Inhibition of human recombinant GSK3alpha
Chain of Glycogen synthase kinase-3 alpha (P49840 whole entry): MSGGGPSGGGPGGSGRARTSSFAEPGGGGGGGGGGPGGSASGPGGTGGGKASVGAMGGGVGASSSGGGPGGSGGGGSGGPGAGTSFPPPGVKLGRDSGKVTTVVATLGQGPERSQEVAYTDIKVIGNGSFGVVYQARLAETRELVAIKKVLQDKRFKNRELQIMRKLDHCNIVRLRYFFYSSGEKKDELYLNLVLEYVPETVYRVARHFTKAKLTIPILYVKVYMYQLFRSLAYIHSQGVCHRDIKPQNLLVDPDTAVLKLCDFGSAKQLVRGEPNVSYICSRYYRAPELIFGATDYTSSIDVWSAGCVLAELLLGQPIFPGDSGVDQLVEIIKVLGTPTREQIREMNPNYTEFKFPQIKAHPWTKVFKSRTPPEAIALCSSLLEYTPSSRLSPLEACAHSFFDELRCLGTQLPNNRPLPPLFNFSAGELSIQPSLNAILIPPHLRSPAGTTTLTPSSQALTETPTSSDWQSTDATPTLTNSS

Chain of Glycogen synthase kinase-3 beta (Homo sapiens) (P49841 whole entry, looked up): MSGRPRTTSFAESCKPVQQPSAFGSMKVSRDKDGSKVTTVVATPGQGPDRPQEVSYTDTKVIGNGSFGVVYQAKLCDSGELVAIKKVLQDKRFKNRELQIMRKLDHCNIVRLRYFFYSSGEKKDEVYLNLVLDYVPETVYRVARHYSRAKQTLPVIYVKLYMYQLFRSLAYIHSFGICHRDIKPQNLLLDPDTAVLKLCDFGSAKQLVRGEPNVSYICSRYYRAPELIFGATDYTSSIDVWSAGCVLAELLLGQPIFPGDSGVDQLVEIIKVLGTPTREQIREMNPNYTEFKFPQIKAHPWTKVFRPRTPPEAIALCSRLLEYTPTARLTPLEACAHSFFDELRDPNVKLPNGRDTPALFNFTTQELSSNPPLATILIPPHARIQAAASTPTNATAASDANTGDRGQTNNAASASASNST

Molecule `COc1cc(CC(=O)Nc2cc(C3CCC3)[nH]n2)cc(OC)c1OC` has an IC50 [1] of 5.71 µM.
`CCN1CCC(NC(=O)c2c(C)noc2C(C)C)CC1` [Name not given] was tested, and the IC50 [2] was 9.1 µM.
In the case of `COc1ncccc1C(=O)Nc1cc(S(C)(=O)=O)ccc1N1CCC(Oc2ccc(F)cc2F)CC1` [Name not given], the IC50 [3] is reported as 2.3 µM.
